Assay results from patent EP0960886B1, “Peptide T and related peptides in the treatment of inflammation, including multiple sclerosis” (priority 1992, dated 1993).
Several values for one entry are separate records, joined by “and”; a condition that tells them apart may be missing. Equal entries are not always repeated. Entries after “also recorded” stand apart in the source; their conditions may differ.

What was measured:
[1] = test system: PBMC; experiment: Mitogen-induced lymphoproliferation (Example 12); assay type: cell-based, human
Description: Concanavalin A (Con A), pokeweed mitogen, (PWM) and phytohaemagglutin-P (PHA-P) were obtained from Sigma Chemical Co. (St. Louis, MO, USA). Peptide T was synthesised by Carlbiotech Ltd (Copenhagen, Denmark) and supplied as the chloride salt at 8.5 mg/ml in 0.9% benzyl alcohol as a preservative and was stored at 4°C. Peptide T was diluted to working solutions in culture medium (RPMI). Dilute solutions of Peptide T were prepared fresh from stock Peptide T for each experiment. ^3H-thymidine (5 Ci/mmol) was obtained from Amersham.
Isolation of PBMC: Whole blood from healthy, adult volunteers was drawn into heparin and peripheral blood mononuclear cells (PBMC) isolated by density gradient centrifugation on HISTOPAQUE™ (Sigma Chemical Co). PBMC were removed from the interface, washed three times in RPMI containing gentamycin (100µg/ml) and resuspended to 1x10^6 PBMC/ml in RPMI containing 10% foetal bovine serum and gentamycin. 10^5 PBMC were cultured in the presence of 100µl of mitogen suspension in 96 well plates. The final concentration of mitogen was: PWM 25µg/ml; PHA 12.5µg/ml and Con A 6.25µg/ml. 10µl of Peptide T working solution (or RPMI as negative control) was added and cell cultures incubated for a total of 5 days in a humid atmosphere, 5% CO2, 37°C. Cultures were then pulsed with ^3H-thymidine (in RPMI) 18-24 hours prior to harvesting. The amount of incorporated ^3H-thymidine was determined using a BECKMAN™ LS8000 liquid scintillation counter and proliferation expressed as either counts per minute (cpm) or as a proliferation index (PI). PI=(cpm of (PBMC+mitogen))/(cpm of (PBMC+media)) [formula]
All experiments were performed in triplicate. Results reported are characteristic of replicated experiments.
Statistical Analyses: Data were analysed by a two sample ANOVA test using 95% confidence limits such that a value of p≤0.05 was considered a significant difference.

[2] = patients with AIDS; Phase I (USC) and Phase II (Fenway Clinic); cited from earlier work
[3] = test system: PBMC; assay type: cell-based, human
[4] = test system: IL-1; experiment: Serum IL-1 by RIA in patients with HIV disease; assay type: in vivo, human; details: one line per patient with HIV disease
From the text: (§1) However, neopterin levels were elevated prior to Peptide T administration whereas serum IL-1 levels were normal.

[5] = test system: p56^lck; experiment: lck specific tyrosine kinase assay (autophosphorylation) in PBL blasts (Example 10); assay type: cell-based; parameters: key: ++++: highly active; +: slightly active; details: Unstimulated PBL blasts; Peptide T 10^-9 M for 2 hours; without P.T. +++
Description: PBL (peripheral blood leukocyte) blasts were prepared by incubating PBMC at 37°C with PHA (10 µg/ml) in RPMI + 10% FBS for 48 hours followed by addition of interleukin-2 and incubation for a subsequent 96 hours. Cells were washed free of IL-2 and incubated for 24 hours then washed free of FBS and incubated for 24 hours. PBL blasts remained either […] or were. treated with OKT4A (anti-CD4) at 10 µg/ml for 1 hour followed by rat anti-mouse Ig at 5 µg/ml for 5 minutes to enhance lck activity. PBL blasts were pretreated with Peptide T (10^-9 M) for 2 hours, then washed extensively before anti-CD4 stimulation. Following immunoprecipitation with anti-lck-Protein A conjugates and incubation (37°C, 10 minutes) with ^32P-ATP, p56^lck autophosphorylation was determined by autoradiography and used as a measure of p56^lck activity.
Peptide T will inhibit the PHA-induced activation and anti-CD4 dependent enhancement of p56^lck activity as we have determined (Table V) by an lck specific tyrosine kinase assay. p56^lck is a CD4 associated tyrosine kinase involved in T cell activation and transmembrane signalling (Janeway C.A. Ann. Rev. Immunol. 10 645-674 (1992)). […]

[6] = test system: Jurkat; experiment: Growth of spontaneously proliferating cell line Jurkat; assay type: cell-based; details: p56^lck positive human T cell line
From the text: Molt-4 is a human T lymphoma cell line, p56^lck negative, and Jurkat is a human T cell line, p56^lck positive, that will grow spontaneously in the absence of exogenous stimuli.

[7] = test system: Neopterin; experiment: Serum neopterin by RIA in patients with HIV disease; assay type: in vivo, human; details: one line per patient with HIV disease
From the text: as §1

[8] = test system: Human umbilical vein endothelial cells; experiment: TNFα-induced tissue factor expression on endothelial cells, ELISA (Example 17); assay type: cell-based; details: TNFα 3 µg/ml for 4 hours; increasing concentrations of Peptide T
Description: Methodology Human umbilical vein endothelial cells were cultured essentially by the method of Bevilacqua et al. Proc. Natl. Acad. Sci. USA 83 4533-4537 (1986). Cell cultures were treated with TNFα at 3 µg/ml for 4 hours at 37° in the presence or absence of Peptide T. Tissue factor expression was measured by an ELISA, following absorbence at 450nm.

[9] = test system: PBMC; experiment: Mixed lymphocyte reaction (Example 13); assay type: cell-based, human

C[C@@H](N)C(=O)N[C@@H](CO)C(=O)N[C@H](C(=O)N[C@H](C(=O)N[C@H](C(=O)N[C@@H](CC(N)=O)C(=O)N[C@@H](Cc1ccc(O)cc1)C(=O)N[C@H](C(N)=O)[C@@H](C)O)[C@@H](C)O)[C@@H](C)O)[C@@H](C)O [Peptide T, D-Ala-Ser-Thr-Thr-Thr-Asn-Tyr-Thr-NH2]
concentration able to inhibit stimulated PBMC cultures ([1]; Con A stimulated, as little as): 0.001 pM | cytotoxicity for responding lymphocytes ([1]; Con A-induced proliferation measured daily): not cytotoxic | proliferation index ± standard deviation ([1]; Con A, Peptide T 1x10^-9 M added Day 1, no Peptide T 21.0 ± 5.7): 6.2 ± 0.5 | proliferation index ± standard deviation ([1]; Con A, Peptide T 1x10^-9 M added Day 2, no Peptide T 21.0 ± 5.7): 6.0 ± 1.1 | proliferation index ± standard deviation ([1]; Con A, Peptide T 1x10^-9 M added Day 3, no Peptide T 21.0 ± 5.7): 9.9 ± 0.1 | proliferation index ± standard deviation ([1]; Con A, Peptide T 1x10^-9 M added Day 4, no Peptide T 21.0 ± 5.7): 9.5 ± 1.6 | concentration able to inhibit stimulated PBMC cultures ([1]; PHA stimulated): 0.1 pM | proliferation index ± standard deviation ([1]; PHA, Peptide T 1x10^-9 M added Day 1, no Peptide T 197 ± 3): 148 ± 13 | proliferation index ± standard deviation ([1]; PHA, Peptide T 1x10^-9 M added Day 2, no Peptide T 197 ± 3): 101 ± 7 | proliferation index ± standard deviation ([1]; PHA, Peptide T 1x10^-9 M added Day 3, no Peptide T 197 ± 3): 148 ± 7 | proliferation index ± standard deviation ([1]; PHA, Peptide T 1x10^-9 M added Day 4, no Peptide T 197 ± 3): 131 ± 10 | concentration able to inhibit stimulated PBMC cultures ([1]; PWM stimulated, as little as): 0.001 pM | proliferation index ± standard deviation ([1]; PWM, Peptide T 1x10^-9 M added Day 1, no Peptide T 4.29 ± 0.25): 3.13 ± 0.21 | proliferation index ± standard deviation ([1]; PWM, Peptide T 1x10^-9 M added Day 2, no Peptide T 4.29 ± 0.25): 3.20 ± 0.20 | proliferation index ± standard deviation ([1]; PWM, Peptide T 1x10^-9 M added Day 3, no Peptide T 4.29 ± 0.25): 2.65 ± 0.17 | proliferation index ± standard deviation ([1]; PWM, Peptide T 1x10^-9 M added Day 4, no Peptide T 4.29 ± 0.25): 3.22 ± 0.28 | mitogen induced proliferation of PBMC after exposure and washing ([1]; exposure to Peptide T for 2 hours, cells washed before mitogen): inhibition of proliferation | Con A-induced lymphocyte proliferation measured daily ([1]; growth period day 2-4, Peptide T 10^-9M, compared with growth in absence of the drug): paralleled, but at a reduced rate | growth of PBMC in the absence of mitogen ([1]; no mitogen): negligible effects; also recorded: did not significantly affect | mitogen stimulation of PBMC after pre-incubation ([1]; pre-incubation with Peptide T for less than 30 minutes): no effect | HIV-induced neurocognitive impairment [2]: improvement | lymphocytes responding to recall antigen (MMR), antibodies to CD3 or the superantigens SEB and TSST-1 [3]: negligible effects | [IL-1] ([4]; post-Peptide T): 3.8 ± 0.12 fmol/100µl and 4.2 ± 0.07 fmol/100µl and 4.6 ± 0.11 fmol/100µl and 4.7 ± 0.05 fmol/100µl and 4.2 ± 0.02 fmol/100µl and 4.2 ± 0.26 fmol/100µl and 4.33 ± 0.003 fmol/100µl and 4.6 ± 0.02 fmol/100µl | [IL-1] ([4]; pre-Peptide T (baseline)): 3.5 ± 0.14 fmol/100µl and 5.23 ± 0.17 fmol/100µl and 4.1 ± 0.01 fmol/100µl and 4.1 ± 0.03 fmol/100µl and 3.7 ± 0.03 fmol/100µl and 4.2 ± 0.14 fmol/100µl and 3.9 ± 0.13 fmol/100µl and 4.35 ± 0.06 fmol/100µl | activity of p56^lck [5]: + | growth of Jurkat cell line [6]: did not significantly affect | [Neopterin] ([7]; Pre-Peptide T (baseline)): 47.3 ± 0.8 nM and 27.8 ± 0.8 nM and 13.15 ± 2.85 nM and 52.0 ± 4.0 nM | [Neopterin] ([7]; post-Peptide T): 32.5 ± 3.5 nM and 19.75 ± 0.25 nM and 8.9 ± 0.6 nM and 16.85 ± 0.05 nM | tissue factor expression [8]: progressively reduce tissue factor expression | growth of lymphocytes in a mixed lymphocyte reaction [9]: did not affect
